As usually defined, the IC50 is the concentration that inhibits the measured activity by half. By Ki is commonly meant a dissociation constant, usually derived from enzyme kinetics or from competition with a known ligand.

Experimental findings from ChEMBL document CHEMBL3784998, “Synthesis and biological evaluation ofd-gluconhydroximo-1,5-lactam and its oxime-substituted derivatives as pharmacological chaperones for the treatment of Gaucher disease” (Medchemcomm, 2016) are described below.

Structures are written as SMILES. Changes are numbered by the printed parent chain. Activity calls are given as the source filed them. The calls are words filed in the database; no cut-off is given here. Some results are limits rather than exact numbers.

The nature of data set [1]: Inhibition of almond beta glucosidase. Also noted: species or system Prunus dulcis.
Data set [2] concerns the target Beta-galactosidase (Escherichia coli K-12, UniProt P00722). As to the kind of experiment: Inhibition of Escherichia coli beta-galactosidase.
Data set [3] deals with Alpha-galactosidase (Coffea arabica, UniProt Q42656). Nature of the data set: Inhibition of green coffee bean alpha-galactosidase.
A short description of data set [4]: Cytotoxicity against wild type human CCC-ESF1 cells at 100 uM after 24 hrs by MTT assay. It is filed as cell-based. The note with it: ccc-esf1, 24 h.
The target of data set [5] is T1, Lysosomal acid glucosylceramidase (Homo sapiens, UniProt P04062).
T1 sequence (P04062 whole entry): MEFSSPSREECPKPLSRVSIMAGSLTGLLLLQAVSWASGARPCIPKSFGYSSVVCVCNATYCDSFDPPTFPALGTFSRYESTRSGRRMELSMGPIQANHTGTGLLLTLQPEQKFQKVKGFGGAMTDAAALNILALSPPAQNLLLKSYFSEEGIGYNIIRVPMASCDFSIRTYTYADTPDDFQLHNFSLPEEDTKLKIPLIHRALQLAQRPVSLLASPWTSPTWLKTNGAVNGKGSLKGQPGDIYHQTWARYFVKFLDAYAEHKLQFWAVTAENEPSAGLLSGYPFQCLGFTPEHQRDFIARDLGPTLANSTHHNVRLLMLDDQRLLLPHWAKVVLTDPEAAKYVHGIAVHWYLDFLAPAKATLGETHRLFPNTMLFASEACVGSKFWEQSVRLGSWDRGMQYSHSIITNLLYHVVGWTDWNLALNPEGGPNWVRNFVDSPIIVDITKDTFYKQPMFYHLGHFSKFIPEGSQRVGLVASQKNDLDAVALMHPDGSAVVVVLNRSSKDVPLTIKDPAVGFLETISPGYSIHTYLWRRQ
As to the kind of experiment: Inhibition of human recombinant imiglucerase using 4-MU-beta-D-Glu as substrate at pH 5.2 after 30 mins by fluorometric analysis.

Data set [6] deals with T1, Lysosomal acid glucosylceramidase. As to the kind of experiment: Inhibition of human recombinant imiglucerase using 4-MU-beta-D-Glu as substrate at pH 7.0 after 30 mins by fluorometric analysis.
The target is the same in data set [7]. As to the kind of experiment: Competitive inhibition of human recombinant imiglucerase using 4-MU-beta-D-Glu as substrate at pH 5.2 after 30 mins by fluorometry based Lineweaver-Burk plot analysis.
Data set [8] relates to T2, Lysosomal acid glucosylceramidase (Homo sapiens), P04062 [N409S].
T2 sequence (whole entry): T1 sequence (P04062 whole entry) with N409S
As to the kind of experiment: Pharmacological chaperone activity at beta-glucocerebrosidase N370S mutant in Gaucher disease patient-derived lymphoblasts with GCase N370S mutant assessed as increase in enzyme activity at 3.125 to 100 uM after 3 days by fluorimetric analysis relative to control.

For data set [9] the test system is unchanged. As to the kind of experiment: Pharmacological chaperone activity at beta-glucocerebrosidase N370S mutant in Gaucher disease patient-derived lymphoblasts with GCase N370S mutant assessed as increase in enzyme activity at 10 uM after 3 days by fluorimetric analysis relative to control.

Sequence of Beta-galactosidase (P00722 whole entry): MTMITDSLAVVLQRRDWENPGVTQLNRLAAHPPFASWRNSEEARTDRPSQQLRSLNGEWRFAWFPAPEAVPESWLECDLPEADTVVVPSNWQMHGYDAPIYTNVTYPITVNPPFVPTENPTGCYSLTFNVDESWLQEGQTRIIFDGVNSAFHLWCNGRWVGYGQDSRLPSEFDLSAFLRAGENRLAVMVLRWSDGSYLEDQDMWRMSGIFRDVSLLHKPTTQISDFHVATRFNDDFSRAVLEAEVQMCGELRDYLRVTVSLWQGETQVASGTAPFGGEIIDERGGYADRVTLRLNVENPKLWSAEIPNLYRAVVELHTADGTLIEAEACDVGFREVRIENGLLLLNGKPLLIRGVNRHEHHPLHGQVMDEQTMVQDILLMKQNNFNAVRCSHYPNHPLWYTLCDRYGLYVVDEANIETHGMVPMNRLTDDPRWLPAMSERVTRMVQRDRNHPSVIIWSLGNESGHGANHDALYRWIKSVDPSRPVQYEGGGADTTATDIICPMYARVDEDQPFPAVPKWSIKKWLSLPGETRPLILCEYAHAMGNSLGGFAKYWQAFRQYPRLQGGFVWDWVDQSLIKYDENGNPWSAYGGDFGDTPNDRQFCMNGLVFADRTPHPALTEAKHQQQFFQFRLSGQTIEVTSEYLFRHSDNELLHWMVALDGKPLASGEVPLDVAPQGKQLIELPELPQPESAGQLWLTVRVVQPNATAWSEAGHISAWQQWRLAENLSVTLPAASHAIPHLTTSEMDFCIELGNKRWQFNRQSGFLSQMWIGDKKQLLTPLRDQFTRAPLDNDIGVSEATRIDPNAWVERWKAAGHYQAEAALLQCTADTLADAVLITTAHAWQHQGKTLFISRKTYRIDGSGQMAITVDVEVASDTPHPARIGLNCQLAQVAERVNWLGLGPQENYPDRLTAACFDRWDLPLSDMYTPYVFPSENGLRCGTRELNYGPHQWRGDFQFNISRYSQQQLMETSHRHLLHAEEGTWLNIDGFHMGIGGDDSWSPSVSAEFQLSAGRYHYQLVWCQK
Sequence of Alpha-galactosidase (Q42656 whole entry): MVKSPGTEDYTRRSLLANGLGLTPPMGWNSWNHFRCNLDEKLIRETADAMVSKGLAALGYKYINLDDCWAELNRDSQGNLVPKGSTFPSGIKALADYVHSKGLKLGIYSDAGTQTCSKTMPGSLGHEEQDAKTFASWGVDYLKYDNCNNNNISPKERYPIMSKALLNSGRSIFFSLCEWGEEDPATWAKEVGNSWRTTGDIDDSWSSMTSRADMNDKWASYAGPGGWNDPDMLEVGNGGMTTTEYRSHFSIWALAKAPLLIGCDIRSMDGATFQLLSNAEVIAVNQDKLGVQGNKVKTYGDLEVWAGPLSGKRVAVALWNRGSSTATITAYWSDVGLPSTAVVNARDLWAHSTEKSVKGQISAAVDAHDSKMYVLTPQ

With `CCCCCCCCCN1C[C@H](O)[C@@H](O)[C@H](O)[C@H]1CO`, the IC50 in [1], in data set [2] and in [3] was more than 100 µM each time. Further, the Activity result in data set [4] is on record as “Non-toxic”.
As for `O=C(Nc1cccs1)O/N=C1\N[C@H](CO)[C@@H](O)[C@H](O)[C@H]1O`, the IC50 in data set [1] was 2.68 µM; in [2], more than 100 µM; in [3], more than 100 µM; in data set [5] it was 0.84 µM; in data set [6], 13.2 µM. For the same molecule, in data set [7], the Ki came to 0.64 µM. Further, the fold change (FC) in data set [8] came to 1.36. For the same molecule, the Activity entry in [4] is listed as “Non-toxic”.
With `O=C(Nc1ccc(Oc2ccccc2)cc1)O/N=C1\N[C@H](CO)[C@@H](O)[C@H](O)[C@H]1O`, the IC50 in data set [1] was 14.4 µM; in [2], more than 100 µM; in data set [3] it was more than 100 µM; in data set [5], 0.32 µM; in data set [6], 3.32 µM. Also, the inhibitory constant (Ki) in [7] was determined as 0.05 µM. The fold change (FC) in data set [8] was determined as 1.17. In [4], the Activity entry was “Non-toxic”.
On to `O=C(NC12CC3CC(CC(C3)C1)C2)O/N=C1\N[C@H](CO)[C@@H](O)[C@H](O)[C@H]1O`, for which the IC50 was 14.4 µM in data set [1]; more than 100 µM in [2]; more than 100 µM in [3]; 1.85 µM in [5]; 8.37 µM in data set [6]. Besides, in data set [7], the Ki stood at 1.52 µM. The fold change (FC) in [8] amounted to 1.35. In addition, the Activity entry in data set [4] is “Non-toxic”.
For `O=C(Nc1c(Cl)cccc1C(F)(F)F)O/N=C1\N[C@H](CO)[C@@H](O)[C@H](O)[C@H]1O`, the half-inhibitory concentration (IC50) was 5.82 µM in [1]; more than 100 µM in data set [2]; more than 100 µM in data set [3]; 18.1 µM in data set [5]; 23.5 µM in [6]. For the same molecule, the Ki in data set [7] is 12.3 µM. Further, in data set [8], the fold change (FC) was found to be 1.32. In data set [4], the Activity entry is listed as “Non-toxic”.
Turning to `OC[C@H]1CNC[C@@H](O)[C@@H]1O` [AFEGOSTAT], the IC50 in [1], in data set [2] and in data set [3] was more than 100 µM each time. Further, the fold change (FC) in [8] is 1.38. Moreover, in data set [4], the Activity result is on record as “Non-toxic”.
For `CSc1ccc(NC(=O)O/N=C2\N[C@H](CO)[C@@H](O)[C@H](O)[C@H]2O)cc1`, the IC50 in [1] is 8.38 µM; in data set [2], more than 100 µM; in data set [3], more than 100 µM; in data set [5], 9.15 µM; in [6], 17.2 µM. Also, the Ki in [7] came out at 8.12 µM. The fold change (FC) in data set [8] came out at 1.19. Besides, the Activity result in data set [4] was “Non-toxic”.
For `CCCCCCCCCCCCNC(=O)O/N=C1\N[C@H](CO)[C@@H](O)[C@H](O)[C@H]1O`, the IC50 is more than 100 µM in data set [1]; more than 100 µM in data set [2]; more than 100 µM in data set [3]; 0.7 µM in [5]; 5.74 µM in data set [6]. Also, the inhibition constant (Ki) in data set [7] came out at 0.14 µM. In addition, the fold change (FC) in data set [8] turned out to be 1.93. For the same molecule, the Activity result in data set [4] is given as “Non-toxic”.
Turning to `O=C(Nc1ccc2nsnc2c1)O/N=C1\N[C@H](CO)[C@@H](O)[C@H](O)[C@H]1O`, the IC50 in data set [1] is 6.21 µM; in data set [2], more than 100 µM; in [3], more than 100 µM; in data set [5], 5.75 µM; in data set [6], 12.5 µM. The inhibition constant (Ki) in data set [7] came to 6.38 µM. Moreover, the fold change (FC) in data set [8] was 1.23. Also, in data set [4], the Activity result was “Non-toxic”.
On to `O=C(Nc1cccc2ccccc12)O/N=C1\N[C@H](CO)[C@@H](O)[C@H](O)[C@H]1O`, for which the half-inhibitory concentration (IC50) is 10.7 µM in data set [1]; more than 100 µM in data set [2]; more than 100 µM in data set [3]; 7.21 µM in [5]; 1.43 µM in [6]. For the same molecule, the Ki in data set [7] is 7.94 µM. Further, in data set [8], the fold change (FC) is 1.47. Moreover, the Activity result in data set [4] was “Non-toxic”.
For `O=C(Nc1c(F)cccc1F)O/N=C1\N[C@H](CO)[C@@H](O)[C@H](O)[C@H]1O`, the IC50 was 7.59 µM in [1]; more than 100 µM in data set [2]; more than 100 µM in [3]; 16.8 µM in [5]; 21.9 µM in data set [6]. Further, the Ki in [7] was found to be 17.4 µM. Moreover, the fold change (FC) in data set [8] worked out at 1.35. Also, in data set [4], the Activity entry is “Non-toxic”.
Take `O=C(Nc1ccccc1)O/N=C1\N[C@H](CO)[C@@H](O)[C@H](O)[C@H]1O`: the concentration for half-maximal inhibition (IC50) is 31.1 µM in data set [1]; more than 100 µM in data set [2]; more than 100 µM in data set [3]; 12.5 µM in data set [5]; 19.3 µM in [6]. Besides, in [7], the inhibition constant (Ki) was determined as 11.5 µM. In [8], the fold change (FC) stood at 1.49. Moreover, the Activity entry in [4] was “Non-toxic”.
On to `CC(C)(C)NC(=O)O/N=C1\N[C@H](CO)[C@@H](O)[C@H](O)[C@H]1O`, for which the 50% inhibitory concentration (IC50) in data set [1] is 46 µM; in data set [2], more than 100 µM; in data set [3], more than 100 µM; in data set [5] it was 29.1 µM; in data set [6] it was 21.5 µM. Moreover, in [7], the inhibitory constant (Ki) worked out at 30.1 µM. The fold change (FC) in [8] came to 1.3. In addition, in data set [4], the Activity entry is “Non-toxic”.
Take `OC[C@H]1N/C(=N/O)[C@H](O)[C@@H](O)[C@@H]1O`: the IC50 in data set [1] was 80.3 µM; in [2], more than 100 µM; in [3], more than 100 µM; in data set [5], 5.84 µM; in data set [6] it was 65.8 µM. In [9], the outcome was inactive. The Ki in data set [7] was determined as 4.28 µM. The fold change (FC) in [8] stood at 1.28. Besides, the Activity result in [4] is given as “Non-toxic”.
